Test results published in patent US6500944B2, “Sulfurizing reagent: 3-aryl-1,2,4-dithiazoline-5-ones” (Avecia Biotechnology, Inc., priority 1997, dated 2002).

What was measured:
Stability study in CH3CN = type: physicochemical; conditions: 25° C., checked by HPLC and 1H-NMR
Procedure: Stability and solubility studies of the sulfur transfer reagents were performed. […] The stability of the compound was checked by HPLC and ^1H-NMR.
(§1) The solubility and stability studies were carried out in CH3CN at 25° C. The saturated solution was dried, and the solubility was determined by the weight of the testing compounds in the exact volume of testing solution. The stability was determined based on either TLC or HPLC and ^1H-NMR analyses.

[1] = Solubility study in CH3CN; type: physicochemical; conditions: 25° C.
Procedure: as §1

stable in CH3CN (Stability study in CH3CN): more than thirty
solubility in CH3CN [1]: highly soluble
SMILES: O=c1nc(-c2ccccc2)ss1 [3-phenyl-1,2,4-dithiazoline-5-one]
